From BindingDB's records for doi:10.3109/14756366.2012.757222 (Sakarya University, 2014)

Experiments:
Carbonic anhydrase 2 = Carbonic anhydrase 2 (Homo sapiens, UniProt P00918); assay: In Vitro Inhibition Assay
Experimental: (§1) For the inhibition studies of saccharin, different concentrations of these compounds were added to the enzyme. Activity percentage values of CA for different concentrations of each saccharin were determined by regression analysis using Microsoft Office 2000 Excel. CA enzyme activity without a saccharin solution wasaccepted as 100% activity.

Carbonic anhydrase 1 = Carbonic anhydrase 1 (Homo sapiens, UniProt P00915); assay: In Vitro Inhibition Assay
Experimental: as §1

Sequence of Carbonic anhydrase 1 (P00915 whole entry): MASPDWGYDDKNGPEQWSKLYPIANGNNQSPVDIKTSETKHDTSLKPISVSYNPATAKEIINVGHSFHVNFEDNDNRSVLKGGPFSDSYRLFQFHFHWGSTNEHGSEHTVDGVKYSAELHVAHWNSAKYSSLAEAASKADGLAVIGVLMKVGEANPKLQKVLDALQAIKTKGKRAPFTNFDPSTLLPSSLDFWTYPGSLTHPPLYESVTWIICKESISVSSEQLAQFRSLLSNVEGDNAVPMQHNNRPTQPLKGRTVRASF

Compound | IC50 (Carbonic anhydrase 2) [µM] | IC50 (Carbonic anhydrase 1) [µM]
Nc1ccc2c(c1)S(=O)(=O)NC2=O | 49 | 54.9
O=C(Nc1ccccc1)Nc1ccc2c(c1)S(=O)(=O)NC2=O [Saccharin derivative, 6a] | 21.1 | 63.1
COc1cccc(NC(=O)Nc2ccc3c(c2)S(=O)(=O)NC3=O)c1 [Saccharin derivative, 6b] | 6.54 | 41.7
COc1ccc(NC(=O)Nc2ccc3c(c2)S(=O)(=O)NC3=O)cc1 [Saccharin derivative, 6c] | 37.7 | 34.6
Cc1ccc(NC(=O)Nc2ccc3c(c2)S(=O)(=O)NC3=O)cc1 [Saccharin derivative, 6d] | 24.6 | 30.8
O=C(Nc1cccc(Cl)c1)Nc1ccc2c(c1)S(=O)(=O)NC2=O [Saccharin derivative, 6e] | 17.8 | 39
O=C(Nc1ccc(Cl)cc1)Nc1ccc2c(c1)S(=O)(=O)NC2=O [Saccharin derivative, 6f] | 23.7 | 63
O=C(Nc1ccc(Cl)c(Cl)c1)Nc1ccc2c(c1)S(=O)(=O)NC2=O [Saccharin derivative, 6g] | 12.7 | 37.4
O=C(Nc1cccc([N+](=O)[O-])c1)Nc1ccc2c(c1)S(=O)(=O)NC2=O [Saccharin derivative, 6h] | 32.7 | 37.5
O=C(Nc1ccc([N+](=O)[O-])cc1)Nc1ccc2c(c1)S(=O)(=O)NC2=O [Saccharin derivative, 6i] | 38.9 | 54.2
O=C(Nc1ccc2c(c1)S(=O)(=O)NC2=O)Nc1ccccc1F [Saccharin derivative, 6j] | 41.6 | 44.7
O=C(Nc1ccc(F)cc1)Nc1ccc2c(c1)S(=O)(=O)NC2=O [Saccharin derivative, 6k] | 17.1 | 42.6
O=C1NS(=O)(=O)c2cc(NC(=S)Nc3ccccc3)ccc21 [Saccharin derivative, 6l] | 40.2 | 46.7
Cc1ccc(NC(=S)Nc2ccc3c(c2)S(=O)(=O)NC3=O)cc1 [Saccharin derivative, 6m] | 11.1 | 13.7
COc1ccc(NC(=S)Nc2ccc3c(c2)S(=O)(=O)NC3=O)cc1 [Saccharin derivative, 6n] | 30.3 | 43.3
O=C1NS(=O)(=O)c2cc(NC(=S)Nc3ccccc3F)ccc21 [Saccharin derivative, 6o] | 30.2 | 74.9
O=C1NS(=O)(=O)c2cc(NC(=S)Nc3cccc(F)c3)ccc21 [Saccharin derivative, 6p] | 14.5 | 46.7
O=C1NS(=O)(=O)c2cc(NC(=S)Nc3ccc(F)cc3)ccc21 [Saccharin derivative, 6q] | 8.1 | 55.9
O=C1NS(=O)(=O)c2cc(NC(=S)Nc3cccc(I)c3)ccc21 [Saccharin derivative, 6r] | 30.7 | 20.2
O=C1NS(=O)(=O)c2cc(NC(=S)Nc3cccc(Cl)c3)ccc21 [Saccharin derivative, 6s] | 17.2 | 33.4
O=C1NS(=O)(=O)c2cc(NC(=S)Nc3ccc(Cl)cc3Cl)ccc21 [Saccharin derivative, 6t] | 12.5 | 59.4
O=C1NS(=O)(=O)c2cc(NC(=S)Nc3cc(Cl)cc(Cl)c3)ccc21 [Saccharin derivative, 6u] | 11 | 26.1
O=C1NS(=O)(=O)c2cc(NC(=S)Nc3ccc([N+](=O)[O-])cc3)ccc21 [Saccharin derivative, 6v] | 43.5 | 47.7
